Experimental data taken from patent US7064145B2, “Inhibition of beta cell degeneration” (Novo Nordisk A/S, priority 2000, dated 2006).
“And” between values parts separate entries of the source, which are not always exact repeats. Equal values may be shown once. Ends that are not written are not given here.

Legend:
[1] = test system: remnant and regenerated pancreatic tissue (beta cells); assay: Pancreatic tissue regeneration, BrdU and insulin immunohistochemistry after 60% pancreatectomy; format: in vivo, Sprague-Dawley rats; design: key to Amount of regenerated tissue: The amount of regenerated tissue was scored on the following range: −, (+), +, ++, +++; The amount of regenerated tissue was scored on the following range: −, (+), +, ++, +++; The amount of regenerated tissue was scored on the following range: −, (+), +, ++, +++; The amount of regenerated tissue was scored on the following range: −, (+), +, ++, +++; The amount of regenerated tissue was scored on the following range: −, (+), +, ++, +++; conditions: 20 mg/kg p.o. x2, day 4 to 8
Procedure: A 60% pancreatectomy was performed on a total of 12 male Sprague-Dawley rats. Vehicle and the DPP-IV inhibitor Val-Pyr was administered to 6 of these from day 4 to 8 in a dose of 20 mg/kg p.o. x2, while the remaining 6 rats were treated with vehicle alone.
The proliferation of beta cells was measured as incorporation of the thymidine analogue 5-bromo-2-deoxyuridine (BrdU) into DNA in insulin-positive cells. 8 days after the 60% pancreatectomy, 100 mg/kg BrdU was administered i.p. and 4 hours later the area containing remnant and regenerated pancreatic tissue was removed and processed for immunohistochemistry. Three adjacent sections from each animal were stained for insulin and BrdU. The amount of regenerated tissue was scored on the following range: −, (+), +, ++, +++. The location of BrDU was examined in regenerated pancreatic (reg) and exocrine (ex) tissue. Insulin staining was scored as weak (W), normal (N), and in regenerated tissue (+R).

[2] = Oral Glucose Tolerance Test (OGTT) at day 8 in 60% pancreatectomized rats; format: in vivo, Sprague-Dawley rats; conditions: 20 mg/kg p.o. x2, day 4 to 8
[3] = test system: pancreatic islet cells from newborn rats; assay: Beta cell proliferation in vitro (BrdU incorporation into DNA in insulin-positive cells); format: cell-based
Procedure: In our efforts to identify beta cell growth factors we discovered that GLP-1 indeed could stimulate beta cell proliferation in vitro. The proliferation was measured as incorporation of the thymidine analogue 5-bromo-2-deoxyuridine (BrdU) into DNA in insulin-positive cells in pancreatic islet cells from newborn rats.

| Compound | Animals with insulin expressed in islets located in the regenerating pancreatic tissue ([1]; vehicle alone 1 out of 6) | Amount of regenerated tissue ([1]; per animal, tissue removed 8 days after 60% pancreatectomy, 20 mg/kg) | Glucose excursion AUC after OGTT [2] | Number of labelled (BrdU) beta cells [3] |
| --- | --- | --- | --- | --- |
| CC(C)[C@H](N)C(=O)N1CCCC1 [Val-Pyr] | 5 out of 6 | + (5×) and ++ | ~50 % of vehicle |  |
| GLP-1: insulinotropic hormone Glucagon like peptide-1 (HAEGTFTSDVSSYLEGQAAKEFIAWLVKGR; ends and bridges not checked; UniProt P01275 98-127, looked up) |  |  |  | increase the number of labelled beta cells |
